The values below come from patent US6790936B1, “CAI resistance proteins and uses thereof” (The United States of America as represented by the …, priority 1994, dated 2004).

Assay type in all cases: cell-based, human
The subject of one experiment is OVCAR3 cells. The experiment in a line: Culture of CAI resistant cells (OVCAR3). The following applies: cells chronically resistant to 10 μM and 20 μM CAI. As for the experimental part:
(§1) Low passage (passage 13) parental human melanoma cells (A2058), and human ovarian cancer cells (OVCAR3) were cultured in Dulbecco's Modified Eagles medium (DMEM) supplemented with 10% fetal calf serum (FCS) and pen/strep (penicillin and streptomycin). Over a period of 24 to 30 months, the cells were incubated with increasing concentrations of CAI starting with 0.1 μM and reaching 45 μM. The CAI, obtained from the Developmental Therapeutics Program of the National Cancer Institute, was dissolved in DMSO and aliquots were stored at −70° C. until used. The diluted CAI was added directly into the media as required. Continuous selective pressure with CAI was maintained throughout culture and was maintained throughout all experiments. OVCAR3 cells chronically resistant to 10 μM and 20 μM CAI were also established.

A further experiment relates to CAIR-1. Briefly: Northern analysis of CAIR-1 expression in A2058-20R versus parental A2058 cells. The conditions noted are these: A2058-20R (20 μM CAI) vs parental A2058 total RNA, compared to GAPDH housekeeping gene control. The text has this:
The subtracted probe was first hybridized against a Northern blot of total RNA from parental A2058 cells and CAI resistant A2058-20R cells. Increased expression of a number of transcripts was seen (FIG. 1, upper left panel). Re-hybridization of the blot with radiolabeled GAPDH as a housekeeping gene confirmed the […] (FIG. 1, lower left panel).
A cDNA library was constructed from A2058-20R cells by Stratagene (La Jolla, Calif., USA). The library was probed using standard approaches (Id.) and the positive probes were plaque purified. Forty-one clones were selected and 35 were determined to be nonoverlapping by restriction digest. Fifteen were randomly selected for determination of their expression by Northern analysis. Inserts were purified by low melting point agarose gel electrophoresis and then radiolabeled with standard random primer conditions (Amersham, Little Chalfont, Bucks, United Kingdom) and hybridized with a Northern of parental (wildtype) total RNA and RNA from A2058-20R cells. […] The CAIR-1 cDNA (clone 21DBB insert) was sequenced using standard dideoxy-sequencing (SequenaseII kit) with 35S-dATP label. The cDNA sequence is shown in Seq. Id No. 1.

The subject of experiment [1] is A2058 CAI resistant cells. Briefly: Culture of CAI resistant cells (A2058). The following applies: chronic culture under continuous CAI, 10, 20, 30 and 40 μM. As for the experimental part:
as §1, with “experiments.” for “experiments. OVCAR3 cells chronically resistant to 10 μM and 20 μM CAI were also established.”
No overt differences in morphology of the A2058 CAI resistant cells was observed.

SMILES strings stand for the structures.

Take `NC(=O)c1nnn(Cc2cc(Cl)c(C(=O)c3ccc(Cl)cc3)c(Cl)c2)c1N` [CAI, Carboxyamido-triazole]: the “growth rates of OVCAR3 cells in the CAI treatments” value in the experiment on OVCAR3 cells was “slightly lower growth rates”. For the same molecule, in the experiment with CAIR-1, the “increased expression of CAIR-1 cDNA (clone 21DBB) in response to culture with CAI” value came to 3.8 fold. The “growth rate of A2058 CAI resistant cells” value in experiment [1] is “not attenuated until the 40 μM treatment in which it decreased somewhat”.
